Reference: PubChem BioAssay (NCI)
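Five compound concentrations were applied to cells in 96-well plates for 48 hours; endpoints were derived by simple linear interpolation of the resulting dose-response curve. TGI marks complete inhibition of growth.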

Experiments:
Test in all cases: DTP human tumour cell line panel, 48 h
HCT-15 colon = test system: HCT-15 colon
NCI-H460 lung = test system: NCI-H460 lung
SF-268 CNS = test system: SF-268 CNS
HOP-62 NSCLC = test system: HOP-62 NSCLC
HOP-92 NSCLC = test system: HOP-92 NSCLC
PC-3 prostate = test system: PC-3 prostate
M14 melanoma = test system: M14 melanoma
NCI-H23 lung = test system: NCI-H23 lung
UO-31 renal = test system: UO-31 renal
TK-10 renal = test system: TK-10 renal
A549 NSCLC = test system: A549 NSCLC
OVCAR-5 ovarian = test system: OVCAR-5 ovarian
NCI-H226 lung = test system: NCI-H226 lung
UACC-62 melanoma = test system: UACC-62 melanoma
CCRF-CEM leukemia = test system: CCRF-CEM leukemia
UACC-257 melanoma = test system: UACC-257 melanoma
SNB-75 CNS = test system: SNB-75 CNS
RXF 393 renal = test system: RXF 393 renal
NCI/ADR-RES ovarian = test system: NCI/ADR-RES ovarian
COLO 205 colon = test system: COLO 205 colon
K-562 leukemia = test system: K-562 leukemia
MOLT-4 leukemia = test system: MOLT-4 leukemia
SN12C renal = test system: SN12C renal
EKVX NSCLC = test system: EKVX NSCLC
DU-145 prostate = test system: DU-145 prostate
ACHN renal = test system: ACHN renal
T-47D breast = test system: T-47D breast
A498 renal = test system: A498 renal
IGROV1 ovarian = test system: IGROV1 ovarian
BT-549 breast = test system: BT-549 breast
HCC-2998 colon = test system: HCC-2998 colon
OVCAR-8 ovarian = test system: OVCAR-8 ovarian
NCI-H522 lung = test system: NCI-H522 lung
HCT-116 colon = test system: HCT-116 colon
SF-295 CNS = test system: SF-295 CNS
OVCAR-3 ovarian = test system: OVCAR-3 ovarian
HT29 colon = test system: HT29 colon
U251 CNS = test system: U251 CNS
HL-60(TB) leukemia = test system: HL-60(TB) leukemia
SK-MEL-2 melanoma = test system: SK-MEL-2 melanoma
MCF7 breast = test system: MCF7 breast
CAKI-1 renal = test system: CAKI-1 renal
SF-539 CNS = test system: SF-539 CNS
HS 578T breast = test system: HS 578T breast
SK-OV-3 ovarian = test system: SK-OV-3 ovarian
OVCAR-4 ovarian = test system: OVCAR-4 ovarian
SW-620 colon = test system: SW-620 colon
SNB-19 CNS = test system: SNB-19 CNS
786-0 renal = test system: 786-0 renal
MDA-N = test system: MDA-N
MALME-3M melanoma = test system: MALME-3M melanoma
SK-MEL-5 melanoma = test system: SK-MEL-5 melanoma
KM12 colon = test system: KM12 colon
MDA-MB-231 breast = test system: MDA-MB-231 breast
SR leukemia = test system: SR leukemia
MDA-MB-435 = test system: MDA-MB-435
LOX IMVI melanoma = test system: LOX IMVI melanoma
RPMI-8226 leukemia = test system: RPMI-8226 leukemia
SK-MEL-28 melanoma = test system: SK-MEL-28 melanoma

## C=CCN1C[C@H](C)N([C@H](c2ccc(C(=O)NC(CC)CC)cc2)c2cccc(OC)c2)C[C@H]1C
HCT-15 colon
  TGI: > 100 µM
NCI-H460 lung
  TGI: > 100 µM
SF-268 CNS
  TGI: > 100 µM
HOP-62 NSCLC
  TGI: > 100 µM
HOP-92 NSCLC
  TGI: > 100 µM
PC-3 prostate
  TGI: > 100 µM
M14 melanoma
  TGI: 34.4 µM
NCI-H23 lung
  TGI: > 100 µM
UO-31 renal
  TGI: 52.7 µM
TK-10 renal
  TGI: > 100 µM
A549 NSCLC
  TGI: > 100 µM
OVCAR-5 ovarian
  TGI: > 100 µM
NCI-H226 lung
  TGI: > 100 µM
UACC-62 melanoma
  TGI: 51.1 µM
CCRF-CEM leukemia
  TGI: > 100 µM
UACC-257 melanoma
  TGI: 70.7 µM
SNB-75 CNS
  TGI: > 100 µM
RXF 393 renal
  TGI: > 100 µM
NCI/ADR-RES ovarian
  TGI: > 100 µM
COLO 205 colon
  TGI: 32.5 µM
K-562 leukemia
  TGI: > 100 µM
MOLT-4 leukemia
  TGI: > 100 µM
SN12C renal
  TGI: > 100 µM
EKVX NSCLC
  TGI: > 100 µM
DU-145 prostate
  TGI: > 100 µM
ACHN renal
  TGI: > 100 µM
T-47D breast
  TGI: > 100 µM
A498 renal
  TGI: 63.3 µM
IGROV1 ovarian
  TGI: > 100 µM
BT-549 breast
  TGI: 99.6 µM
HCC-2998 colon
  TGI: > 100 µM
OVCAR-8 ovarian
  TGI: > 100 µM
NCI-H522 lung
  TGI: 34.7 µM
HCT-116 colon
  TGI: > 100 µM
SF-295 CNS
  TGI: > 100 µM
OVCAR-3 ovarian
  TGI: > 100 µM
HT29 colon
  TGI: 61.1 µM
U251 CNS
  TGI: > 100 µM
HL-60(TB) leukemia
  TGI: 32.4 µM
SK-MEL-2 melanoma
  TGI: 46.1 µM
MCF7 breast
  TGI: > 100 µM
CAKI-1 renal
  TGI: 65.1 µM
SF-539 CNS
  TGI: 43.4 µM
HS 578T breast
  TGI: > 100 µM
SK-OV-3 ovarian
  TGI: > 100 µM
OVCAR-4 ovarian
  TGI: > 100 µM
SW-620 colon
  TGI: > 100 µM
SNB-19 CNS
  TGI: > 100 µM
786-0 renal
  TGI: > 100 µM
MDA-N
  TGI: > 100 µM
MALME-3M melanoma
  TGI: 43.5 µM
SK-MEL-5 melanoma
  TGI: 32.4 µM
KM12 colon
  TGI: > 100 µM
MDA-MB-231 breast
  TGI: 75.6 µM
SR leukemia
  TGI: 44.4 µM
MDA-MB-435
  TGI: > 100 µM
LOX IMVI melanoma
  TGI: 58.6 µM

## CC1(C)N=[N+]([O-])C1(C)C
HCT-15 colon
  TGI: > 100 µM
NCI-H460 lung
  TGI: > 100 µM
SF-268 CNS
  TGI: > 100 µM
PC-3 prostate
  TGI: > 100 µM
M14 melanoma
  TGI: > 100 µM
NCI-H23 lung
  TGI: > 100 µM
UO-31 renal
  TGI: > 100 µM
TK-10 renal
  TGI: > 100 µM
A549 NSCLC
  TGI: > 100 µM
OVCAR-5 ovarian
  TGI: > 100 µM
NCI-H226 lung
  TGI: > 100 µM
UACC-62 melanoma
  TGI: > 100 µM
CCRF-CEM leukemia
  TGI: > 100 µM
UACC-257 melanoma
  TGI: > 100 µM
SNB-75 CNS
  TGI: > 100 µM
RXF 393 renal
  TGI: > 100 µM
NCI/ADR-RES ovarian
  TGI: > 100 µM
COLO 205 colon
  TGI: > 100 µM
RPMI-8226 leukemia
  TGI: > 100 µM
K-562 leukemia
  TGI: > 100 µM
MOLT-4 leukemia
  TGI: > 100 µM
SN12C renal
  TGI: > 100 µM
EKVX NSCLC
  TGI: > 100 µM
DU-145 prostate
  TGI: > 100 µM
T-47D breast
  TGI: > 100 µM
A498 renal
  TGI: > 100 µM
IGROV1 ovarian
  TGI: > 100 µM
BT-549 breast
  TGI: > 100 µM
HCC-2998 colon
  TGI: > 100 µM
OVCAR-8 ovarian
  TGI: > 100 µM
NCI-H522 lung
  TGI: > 100 µM
HCT-116 colon
  TGI: > 100 µM
OVCAR-3 ovarian
  TGI: > 100 µM
HT29 colon
  TGI: > 100 µM
U251 CNS
  TGI: > 100 µM
HL-60(TB) leukemia
  TGI: > 100 µM
SK-MEL-2 melanoma
  TGI: > 100 µM
MCF7 breast
  TGI: > 100 µM
CAKI-1 renal
  TGI: > 100 µM
SF-539 CNS
  TGI: > 100 µM
HS 578T breast
  TGI: > 100 µM
SK-OV-3 ovarian
  TGI: > 100 µM
OVCAR-4 ovarian
  TGI: > 100 µM
SW-620 colon
  TGI: > 100 µM
SNB-19 CNS
  TGI: > 100 µM
786-0 renal
  TGI: > 100 µM
MDA-N
  TGI: > 100 µM
MALME-3M melanoma
  TGI: > 100 µM
SK-MEL-5 melanoma
  TGI: > 100 µM
SK-MEL-28 melanoma
  TGI: > 100 µM
KM12 colon
  TGI: > 100 µM
MDA-MB-231 breast
  TGI: > 100 µM
SR leukemia
  TGI: > 100 µM
MDA-MB-435
  TGI: > 100 µM
LOX IMVI melanoma
  TGI: > 100 µM
